Active and inactive are the calls of the source.
How the values were obtained:
Prothrombin = Prothrombin (Bos taurus, UniProt P00735); experiment: thrombin protease inhibitors – biochemical, fluorescence polarization, uHTS hits, dose response (AID 602369); format: functional
[1] = target: 26S proteasome non-ATPase regulatory subunit 14 (Homo sapiens, UniProt O00487); experiment: inhibition of proteasome subunit RPN11 – biochemical, fluorescence polarization, uHTS hits, confirmation (AID 602368); format: functional
[2] = target: 72 kDa type IV collagenase (Homo sapiens, UniProt P08253); experiment: Dose Response validation of uHTS RPN11 inhibitor hits using a MMP-2 Fluorescence assay.; format: functional
Nonstructural protein 1 = Nonstructural protein 1 (Influenza A virus, UniProt Q194T2); format: functional, Influenza A virus (A/California/07/2009(H1N1))
[3] = target: T1, High affinity choline transporter 1 (Homo sapiens, UniProt Q9GZV3); experiment: human choline transporter blockers, potency – cell-based, 5-point CRC, membrane potential dye, dose response (AID 504840); format: functional
T1 sequence (Q9GZV3 whole entry): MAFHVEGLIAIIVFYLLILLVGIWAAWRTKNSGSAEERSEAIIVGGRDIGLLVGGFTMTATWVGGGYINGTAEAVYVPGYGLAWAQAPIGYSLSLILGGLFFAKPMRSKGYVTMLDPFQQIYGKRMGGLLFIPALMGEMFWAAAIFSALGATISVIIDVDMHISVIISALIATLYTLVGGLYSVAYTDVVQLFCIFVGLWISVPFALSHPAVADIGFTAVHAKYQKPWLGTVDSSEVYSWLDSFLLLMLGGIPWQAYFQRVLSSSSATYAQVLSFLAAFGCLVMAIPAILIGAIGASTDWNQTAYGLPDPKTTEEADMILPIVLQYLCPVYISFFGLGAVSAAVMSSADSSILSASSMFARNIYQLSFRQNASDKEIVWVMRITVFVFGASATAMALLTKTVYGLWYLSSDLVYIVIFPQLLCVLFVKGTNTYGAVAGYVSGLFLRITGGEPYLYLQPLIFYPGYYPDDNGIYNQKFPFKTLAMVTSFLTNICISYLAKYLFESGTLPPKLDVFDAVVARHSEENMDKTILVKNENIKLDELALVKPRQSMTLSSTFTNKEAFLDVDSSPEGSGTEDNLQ

[4] = activation of miR-122 Renilla sensor silencing – cell-based, Huh7 psiCHECK-miR122, Renilla luciferase, cherry-picked, dose response (AID 651956); format: functional;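 note: huh7 hepatoma cells stably carrying a psiCHECK-2 miR-122 sensor plasmid; renilla luciferase signal reporting endogenous miR-122 activity after 48 h compound exposure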
[5] = target: T2, DNA repair and recombination protein RAD54-like (Homo sapiens, UniProt Q92698); experiment: RAD54 Holliday junction migration blockers – biochemical, fluorescence, cherry-picked samples, dose series, confirmation (AID 651657); format: functional
T2 sequence (Q92698 whole entry): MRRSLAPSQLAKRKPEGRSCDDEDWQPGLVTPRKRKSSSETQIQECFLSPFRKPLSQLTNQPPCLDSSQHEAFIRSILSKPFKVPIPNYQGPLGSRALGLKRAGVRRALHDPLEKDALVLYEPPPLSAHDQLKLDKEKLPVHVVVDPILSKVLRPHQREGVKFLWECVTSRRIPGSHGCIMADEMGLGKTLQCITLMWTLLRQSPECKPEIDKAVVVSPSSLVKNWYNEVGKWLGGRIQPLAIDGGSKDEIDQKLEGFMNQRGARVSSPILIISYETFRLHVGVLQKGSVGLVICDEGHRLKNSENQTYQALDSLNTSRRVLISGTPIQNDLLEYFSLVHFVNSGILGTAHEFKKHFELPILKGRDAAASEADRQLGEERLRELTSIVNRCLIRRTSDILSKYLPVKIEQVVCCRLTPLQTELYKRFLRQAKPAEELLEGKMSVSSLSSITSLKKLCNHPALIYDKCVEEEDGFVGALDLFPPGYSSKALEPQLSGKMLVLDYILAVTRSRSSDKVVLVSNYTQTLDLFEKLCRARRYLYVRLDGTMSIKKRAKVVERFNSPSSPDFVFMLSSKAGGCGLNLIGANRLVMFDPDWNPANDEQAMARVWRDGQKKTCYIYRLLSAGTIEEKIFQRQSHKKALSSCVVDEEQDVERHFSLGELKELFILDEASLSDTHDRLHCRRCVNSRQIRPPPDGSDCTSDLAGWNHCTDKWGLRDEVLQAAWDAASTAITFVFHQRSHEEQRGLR

[6] = target: T3, Probable nicotinate-nucleotide adenylyltransferase (Staphylococcus aureus (strain N315), UniProt P65502); format: functional, Staphylococcus aureus subsp. aureus N315;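 for IC50 Mean: confirmatory dose-response retesting of NadD inhibitor hits first found in an ultra-high-throughput screen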
[7] = target: T3, Probable nicotinate-nucleotide adenylyltransferase; format: functional, Staphylococcus aureus subsp. aureus N315; details: read-out: IC50_Mean
Beta-galactosidase = Beta-galactosidase (Escherichia coli, UniProt Q8VNN2); experiment: PubChem AID 485352; format: functional
Melanocortin receptor 4 [8] = target: T4, Melanocortin receptor 4 (Homo sapiens, UniProt P32245); experiment: inhibitors of MC4R cAMP signaling – cell-based, TR-FRET, biased antagonists, dose response (AID 602298); format: functional;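 note: antagonist potency against agonist-stimulated cAMP production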
[9] = viability of PTEN-deleted HCT116 cells – cell-based, HCT116 PTEN knockout, dose response (AID 1047); format: functional;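 note: HCT116 colon tumor cells with PTEN knocked out; cells exposed to compound for 60 hours before readout; potency for loss of cell viability measured by luminescence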
[10] = cAMP pathway inhibition in counterscreen cell line – TR-FRET cAMP detection, counter-screen for MC4R biased antagonist project, dose response (AID 602305); format: functional, cell-based;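 note: U2OS cells stimulated with forskolin near its EC80 as the cAMP inducer; potency is for inhibition of forskolin-stimulated cAMP signaling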
[11] = target: Beta-2 adrenergic receptor (Homo sapiens, UniProt P07550); experiment: ADRB2 activation measured by internalization – cell-based, FAP fluorogen, flow cytometry, cherry pick 1, dose response (AID 588763); format: functional
[12] = target: T5, Type-1 angiotensin II receptor (Homo sapiens, UniProt P30556); experiment: antagonism of angiotensin II type 1 receptor – cell-based, uHTS hits, selectivity assay for APJ receptor antagonist project, dose response (AID 463214); format: functional;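 note: antagonist potency against angiotensin II stimulated AT1 response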
T5 sequence (P30556 whole entry): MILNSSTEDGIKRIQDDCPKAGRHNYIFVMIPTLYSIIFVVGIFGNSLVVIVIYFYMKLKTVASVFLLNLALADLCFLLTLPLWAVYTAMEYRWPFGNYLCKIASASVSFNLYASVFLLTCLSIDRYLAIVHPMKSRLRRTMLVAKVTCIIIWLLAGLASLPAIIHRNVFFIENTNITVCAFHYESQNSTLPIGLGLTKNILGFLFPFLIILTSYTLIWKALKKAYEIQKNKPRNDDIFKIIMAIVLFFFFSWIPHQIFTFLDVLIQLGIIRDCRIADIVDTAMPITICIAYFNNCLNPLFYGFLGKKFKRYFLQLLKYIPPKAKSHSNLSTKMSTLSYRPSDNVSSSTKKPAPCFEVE

[13] = Luminescence Cell-Based Dose Retest to Confirm Inhibitors of Cancer Stem Cells. [Related pubchem assays (depositor defined):AID2717, AID2721]; format: functional; details: Homo sapiens
[14] = viability of HCT116 lacking mutant beta-catenin – cell-based, human colon tumor, dose response (AID 1045); format: functional;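 note: HCT116 colon tumor cells with beta catenin knocked out; cells exposed to compound for 60 hours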
[15] = target: T6, Short transient receptor potential channel 4 (Mus musculus, UniProt Q9QUQ5); experiment: calcium entry via TRPC4 opening agents – cell-based, HEK293 TRPC4/mu-opioid, Fluo-4 calcium, dose response (AID 434937); format: functional
T6 sequence (Q9QUQ5 whole entry): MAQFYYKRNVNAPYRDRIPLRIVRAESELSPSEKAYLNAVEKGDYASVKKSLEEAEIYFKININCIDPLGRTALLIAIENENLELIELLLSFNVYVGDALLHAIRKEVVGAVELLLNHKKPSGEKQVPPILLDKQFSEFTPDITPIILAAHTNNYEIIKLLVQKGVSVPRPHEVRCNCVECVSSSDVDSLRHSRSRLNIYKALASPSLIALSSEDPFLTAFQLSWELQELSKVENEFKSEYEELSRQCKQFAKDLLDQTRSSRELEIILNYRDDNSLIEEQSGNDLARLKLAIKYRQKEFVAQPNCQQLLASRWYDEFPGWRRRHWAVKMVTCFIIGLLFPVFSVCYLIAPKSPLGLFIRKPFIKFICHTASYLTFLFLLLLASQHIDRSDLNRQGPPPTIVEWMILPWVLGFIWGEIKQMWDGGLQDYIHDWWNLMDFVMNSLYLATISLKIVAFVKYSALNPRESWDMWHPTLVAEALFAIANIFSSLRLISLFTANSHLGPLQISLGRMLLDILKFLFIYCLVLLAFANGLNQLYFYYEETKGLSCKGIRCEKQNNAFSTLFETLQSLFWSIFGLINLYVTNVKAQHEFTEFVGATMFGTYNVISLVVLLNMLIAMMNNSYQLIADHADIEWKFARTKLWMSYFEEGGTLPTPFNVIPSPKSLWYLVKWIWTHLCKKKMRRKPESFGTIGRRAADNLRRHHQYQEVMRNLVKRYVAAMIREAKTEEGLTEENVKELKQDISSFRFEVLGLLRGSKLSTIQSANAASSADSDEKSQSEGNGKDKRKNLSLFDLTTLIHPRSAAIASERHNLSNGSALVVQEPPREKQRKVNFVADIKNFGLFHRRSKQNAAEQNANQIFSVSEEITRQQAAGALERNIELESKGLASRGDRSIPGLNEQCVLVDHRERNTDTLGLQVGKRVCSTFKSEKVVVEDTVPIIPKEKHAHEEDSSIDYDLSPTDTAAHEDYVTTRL

Melanocortin receptor 4 [16] = target: T4, Melanocortin receptor 4; format: functional, cell-based
Paired box protein Pax-8 = Paired box protein Pax-8 (Homo sapiens, UniProt Q06710); experiment: PAX8 transcriptional activity inhibition in RMG-I – RMG-I cells, luciferase, cherry-pick, dose response (AID 687027); format: functional, cell-based;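 note: luciferase reporter driven by Pax8 target thyroperoxidase promoter measured by SteadyGlo luminescence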
[17] = target: Ras and Rab interactor 1/Tyrosine-protein kinase ABL1 (Homo sapiens, UniProt P00519+Q13671); format: functional;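 note: biochemical TR-FRET dose-response test measuring inhibition of binding between Rin1 and Abl proteins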
Chain of Ras and Rab interactor 1/Tyrosine-protein kinase ABL1 (P00519 whole entry): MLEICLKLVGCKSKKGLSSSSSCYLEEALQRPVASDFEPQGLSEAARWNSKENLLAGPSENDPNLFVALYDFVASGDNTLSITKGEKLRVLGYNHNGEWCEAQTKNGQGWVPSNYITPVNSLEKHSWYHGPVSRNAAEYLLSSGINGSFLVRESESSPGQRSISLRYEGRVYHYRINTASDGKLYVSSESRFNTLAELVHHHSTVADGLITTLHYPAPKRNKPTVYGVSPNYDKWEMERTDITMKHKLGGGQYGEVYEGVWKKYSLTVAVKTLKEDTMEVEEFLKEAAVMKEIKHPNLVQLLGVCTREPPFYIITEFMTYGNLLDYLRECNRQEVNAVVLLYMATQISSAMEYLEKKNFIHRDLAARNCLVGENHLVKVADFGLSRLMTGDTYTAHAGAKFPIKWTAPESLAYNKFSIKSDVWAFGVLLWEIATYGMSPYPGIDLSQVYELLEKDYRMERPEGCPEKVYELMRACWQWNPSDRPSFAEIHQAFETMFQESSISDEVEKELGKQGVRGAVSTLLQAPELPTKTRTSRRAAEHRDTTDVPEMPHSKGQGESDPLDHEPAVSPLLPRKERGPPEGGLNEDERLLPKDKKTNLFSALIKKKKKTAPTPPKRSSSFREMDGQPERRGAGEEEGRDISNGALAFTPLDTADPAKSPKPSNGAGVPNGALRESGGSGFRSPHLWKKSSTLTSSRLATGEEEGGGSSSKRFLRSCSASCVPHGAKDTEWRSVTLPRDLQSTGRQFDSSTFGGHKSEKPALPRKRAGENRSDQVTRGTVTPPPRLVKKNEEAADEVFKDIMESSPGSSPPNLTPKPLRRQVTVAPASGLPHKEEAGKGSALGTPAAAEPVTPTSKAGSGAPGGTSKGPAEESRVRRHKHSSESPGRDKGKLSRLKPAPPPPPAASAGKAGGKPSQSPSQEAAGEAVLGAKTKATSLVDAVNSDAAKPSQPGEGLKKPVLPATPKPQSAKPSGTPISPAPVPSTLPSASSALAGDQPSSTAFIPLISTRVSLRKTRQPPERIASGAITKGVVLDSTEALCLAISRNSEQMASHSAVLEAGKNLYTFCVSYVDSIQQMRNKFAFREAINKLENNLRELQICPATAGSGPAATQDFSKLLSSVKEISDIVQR
Chain of Ras and Rab interactor 1/Tyrosine-protein kinase ABL1 (Q13671 whole entry): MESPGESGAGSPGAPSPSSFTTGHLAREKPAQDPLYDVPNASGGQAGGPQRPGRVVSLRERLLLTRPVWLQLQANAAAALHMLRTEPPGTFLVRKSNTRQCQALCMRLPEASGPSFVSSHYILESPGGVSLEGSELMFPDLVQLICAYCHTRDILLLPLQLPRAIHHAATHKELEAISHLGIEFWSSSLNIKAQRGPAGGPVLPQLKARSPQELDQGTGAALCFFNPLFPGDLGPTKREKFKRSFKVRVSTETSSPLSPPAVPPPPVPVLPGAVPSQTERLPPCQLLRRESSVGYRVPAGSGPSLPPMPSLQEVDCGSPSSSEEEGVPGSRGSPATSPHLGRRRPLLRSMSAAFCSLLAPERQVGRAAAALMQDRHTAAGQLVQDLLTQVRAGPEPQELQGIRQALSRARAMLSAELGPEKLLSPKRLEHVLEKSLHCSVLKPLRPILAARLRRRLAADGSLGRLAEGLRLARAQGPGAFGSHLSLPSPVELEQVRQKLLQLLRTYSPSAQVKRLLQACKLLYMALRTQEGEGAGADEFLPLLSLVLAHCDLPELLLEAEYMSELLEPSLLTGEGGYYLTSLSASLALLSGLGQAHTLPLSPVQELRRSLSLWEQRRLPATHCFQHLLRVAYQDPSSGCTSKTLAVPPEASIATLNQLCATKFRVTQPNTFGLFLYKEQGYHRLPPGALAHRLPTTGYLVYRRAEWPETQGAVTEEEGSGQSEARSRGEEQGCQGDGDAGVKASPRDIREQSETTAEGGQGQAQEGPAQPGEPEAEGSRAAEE

T3 sequence (P65502 whole entry): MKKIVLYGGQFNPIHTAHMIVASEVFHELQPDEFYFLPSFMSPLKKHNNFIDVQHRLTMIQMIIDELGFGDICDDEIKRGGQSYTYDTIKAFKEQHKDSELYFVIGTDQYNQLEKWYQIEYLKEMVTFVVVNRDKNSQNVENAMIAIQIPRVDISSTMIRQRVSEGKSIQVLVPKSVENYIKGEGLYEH
Chain of 72 kDa type IV collagenase (P08253 whole entry): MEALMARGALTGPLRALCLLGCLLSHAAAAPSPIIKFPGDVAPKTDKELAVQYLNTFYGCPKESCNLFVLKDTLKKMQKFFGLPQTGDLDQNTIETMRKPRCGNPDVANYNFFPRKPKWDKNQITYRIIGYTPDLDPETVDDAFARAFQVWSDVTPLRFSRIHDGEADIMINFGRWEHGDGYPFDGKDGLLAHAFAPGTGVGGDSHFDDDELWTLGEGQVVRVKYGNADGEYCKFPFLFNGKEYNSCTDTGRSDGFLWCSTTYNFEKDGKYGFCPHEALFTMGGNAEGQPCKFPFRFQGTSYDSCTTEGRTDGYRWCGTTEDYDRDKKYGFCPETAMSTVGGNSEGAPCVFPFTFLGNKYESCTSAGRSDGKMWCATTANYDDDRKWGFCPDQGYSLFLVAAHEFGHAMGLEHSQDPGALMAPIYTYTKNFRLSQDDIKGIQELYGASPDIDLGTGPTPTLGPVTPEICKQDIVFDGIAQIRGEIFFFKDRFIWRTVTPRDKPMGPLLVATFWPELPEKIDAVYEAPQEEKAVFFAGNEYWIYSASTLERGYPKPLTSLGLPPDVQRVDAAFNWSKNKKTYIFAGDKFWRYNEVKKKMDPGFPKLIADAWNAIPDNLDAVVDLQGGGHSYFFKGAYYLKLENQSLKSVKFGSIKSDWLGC
T4 sequence (P32245 whole entry): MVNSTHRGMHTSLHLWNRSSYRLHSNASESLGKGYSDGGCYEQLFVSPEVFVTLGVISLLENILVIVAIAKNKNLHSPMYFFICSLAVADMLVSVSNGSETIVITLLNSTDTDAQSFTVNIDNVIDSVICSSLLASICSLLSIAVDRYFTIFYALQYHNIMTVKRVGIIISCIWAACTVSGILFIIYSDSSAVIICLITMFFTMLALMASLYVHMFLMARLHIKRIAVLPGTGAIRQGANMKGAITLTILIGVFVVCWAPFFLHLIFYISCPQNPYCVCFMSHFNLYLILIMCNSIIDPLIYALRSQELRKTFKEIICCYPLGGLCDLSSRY
Chain of 26S proteasome non-ATPase regulatory subunit 14 (O00487 whole entry): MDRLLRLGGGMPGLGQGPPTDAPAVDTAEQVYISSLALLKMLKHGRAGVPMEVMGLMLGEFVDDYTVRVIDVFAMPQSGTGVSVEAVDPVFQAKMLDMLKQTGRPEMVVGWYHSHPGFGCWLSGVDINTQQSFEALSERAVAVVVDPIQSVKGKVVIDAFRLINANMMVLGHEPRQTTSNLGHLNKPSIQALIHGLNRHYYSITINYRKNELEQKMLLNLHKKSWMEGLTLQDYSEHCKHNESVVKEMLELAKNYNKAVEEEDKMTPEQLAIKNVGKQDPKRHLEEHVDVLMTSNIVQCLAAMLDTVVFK
Chain of Nonstructural protein 1 (Q194T2 whole entry): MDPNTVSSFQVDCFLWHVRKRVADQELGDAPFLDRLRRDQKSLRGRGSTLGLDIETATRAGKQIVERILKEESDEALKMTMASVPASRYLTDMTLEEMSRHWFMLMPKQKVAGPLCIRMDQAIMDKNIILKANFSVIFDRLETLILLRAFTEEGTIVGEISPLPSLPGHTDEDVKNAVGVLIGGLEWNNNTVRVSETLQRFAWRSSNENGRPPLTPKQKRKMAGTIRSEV
Chain of Beta-2 adrenergic receptor (P07550 whole entry): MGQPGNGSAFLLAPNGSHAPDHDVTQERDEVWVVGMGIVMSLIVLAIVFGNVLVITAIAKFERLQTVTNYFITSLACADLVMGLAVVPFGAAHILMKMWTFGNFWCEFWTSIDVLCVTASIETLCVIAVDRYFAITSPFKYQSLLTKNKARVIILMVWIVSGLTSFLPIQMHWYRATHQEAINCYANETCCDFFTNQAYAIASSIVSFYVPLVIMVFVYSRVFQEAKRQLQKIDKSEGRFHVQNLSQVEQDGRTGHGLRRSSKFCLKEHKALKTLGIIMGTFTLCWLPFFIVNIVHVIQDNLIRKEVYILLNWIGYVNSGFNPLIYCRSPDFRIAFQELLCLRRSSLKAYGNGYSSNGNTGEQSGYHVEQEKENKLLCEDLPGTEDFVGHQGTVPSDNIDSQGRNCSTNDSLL
Chain of Paired box protein Pax-8 (Q06710 whole entry): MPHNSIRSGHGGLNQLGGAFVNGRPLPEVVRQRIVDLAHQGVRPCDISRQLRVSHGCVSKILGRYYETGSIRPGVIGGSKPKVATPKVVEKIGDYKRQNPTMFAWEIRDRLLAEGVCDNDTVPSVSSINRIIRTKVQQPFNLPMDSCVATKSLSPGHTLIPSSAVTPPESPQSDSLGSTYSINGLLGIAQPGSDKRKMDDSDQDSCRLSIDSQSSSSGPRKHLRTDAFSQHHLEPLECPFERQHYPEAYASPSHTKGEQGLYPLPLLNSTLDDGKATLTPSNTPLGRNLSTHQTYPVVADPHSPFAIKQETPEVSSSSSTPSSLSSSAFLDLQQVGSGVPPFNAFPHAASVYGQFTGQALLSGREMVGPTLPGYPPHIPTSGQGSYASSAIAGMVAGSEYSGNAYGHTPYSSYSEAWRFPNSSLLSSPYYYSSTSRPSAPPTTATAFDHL

COc1cccc(-c2nn(-c3ccccc3)cc2/C=C(\C#N)C(=O)NCCCn2ccnc2)c1
IC50 (Prothrombin): 44.4 µM (active) | IC50 [1]: 38.9 µM (active) | IC50 [2]: > 100 µM (inactive) | IC50 (Nonstructural protein 1): 74.2 µM (active) | IC50 [3]: 10.5 µM (active)

COc1cccc(-c2nc(NCCN3CCOCC3)c3ccccc3n2)c1O
AC50 [4]: 51.4 µM (active) | AC50 [5]: 8.35 µM (active)

CCOC(=O)c1c(C)[nH]c(C(=O)OCC(=O)N(CC(C)C)c2c(N)n(Cc3ccccc3)c(=O)[nH]c2=O)c1C
IC50 (Prothrombin): 33.7 µM (active) | IC50 [1]: 31.8 µM (active) | IC50 [2]: > 100 µM (inactive)

Cc1cccc(N2CCN(C(=O)c3ccc4c(c3)NC(=O)C(CSCc3cccc(F)c3)N4)CC2C)c1 (configuration not stated)
IC50 [6]: 3.09 µM (active) | IC50 [7]: 13.8 µM (active)

CC(C)Cc1nc2oc3c(Cl)ncnc3c2c2c1CCC2
EC50 (Beta-galactosidase): > 40 µM (inactive) | IC50 (Melanocortin receptor 4 [8]): > 64.6 µM (inactive) | EC50 [9]: 18 µM (active) | IC50 [10]: > 64.6 µM (inactive) | EC50 [11]: 11.8 µM (inactive) | IC50 [12]: > 40 µM (not active) | AC50 [13]: 4.61 µM (active) | EC50 [14]: 8.07 µM (active)

Cc1nc(SCc2nc3cc(Cl)c(F)cc3[nH]2)c2oc3ccccc3c2n1
IC50 (Prothrombin): 42.5 µM (active) | IC50 [1]: 38.1 µM (active) | IC50 [2]: > 100 µM (inactive)

CC(C)C1CC(CCNCc2ccc3c(c2)OCO3)(c2ccccc2)CCO1 (configuration not stated)
EC50 [15]: 5.96 µM (active) | IC50 (Melanocortin receptor 4 [8]): > 64.6 µM (inactive) | IC50 [10]: > 64.6 µM (inactive)

CCN1CCC(O)(/C=C/c2ccc(C(C)C)cc2)C(C(=O)/C=C/c2ccc(C(C)C)cc2)C1 (configuration not stated)
EC50 (Melanocortin receptor 4 [16]): > 89.2 µM (inactive)

COc1ccc(C(NC(=O)C2CCN(CCOc3ccc(Cl)cc3Cl)CC2)c2ccccc2C)cn1 (configuration not stated)
EC50 (Melanocortin receptor 4 [16]): > 89.2 µM (inactive)

CCN1CCN(Cc2ccc(NC(=O)c3cc(NC(=O)C(=O)c4c[nH]c5ccccc45)cc(OC)c3)cc2C(F)(F)F)CC1
EC50 (Melanocortin receptor 4 [16]): > 89.2 µM (inactive) | AC50 (Paired box protein Pax-8): 8.98 µM (active)

O=C(Cc1ccc(NC(=O)C2CCN(C(=O)C3CCCCC3)CC2)cc1)Nc1ccc(C(=O)N2CCOCC2)cc1
IC50 [17]: 5.51 µM (active)

COc1ccc(/C=N/NC(=O)Cn2c(Cc3ccc(OC)c(OC)c3)nc3ccccc32)cc1
IC50 [17]: > 73.4 µM (inactive)

COc1cccc(-c2ccc3c(c2)O[C@H](CN(C)C(=O)C2CCOCC2)[C@H](C)CN([C@H](C)CO)S3(=O)=O)c1
AC50 [4]: 15.8 µM (active)

C#CCN(C[C@H]1[C@H](OC(=O)NCc2ccccc2)[C@H](OC(=O)NCc2ccccc2)C[C@H]2C(=O)N(c3ccccc3)C(=O)[C@@H]12)S(=O)(=O)c1ccc(C)cc1
IC50 [6]: 16.5 µM (active) | IC50 [7]: 42.3 µM (active)

O=C1NC[C@@H](CCCCN2C[C@H](Cc3ccc(O)cc3)N(CCC3CCCCC3)C(=O)C2=O)N(CC2CCCCC2)C1=O
IC50 [6]: 8.3 µM (active) | IC50 [7]: 37.2 µM (active)
